Experimental data: ChEMBL document CHEMBL1129427, “Novel AMPA receptor antagonists: synthesis and structure-activity relationships of 1-hydroxy-7-(1H-imidazol-1-yl)-6-nitro-2,3(1H,4H)- quinoxalinedione and related compounds” (J Med Chem, 1996)
pKi: −log10 of the molar value.

What follows are compounds tested against Glutamate receptor ionotropic, NMDA 1 (Rattus norvegicus, UniProt P35439) (assay: Binding affinity towards glycine binding site on NMDA receptor was determined in rat whole brain membrane using strychnine-insensitive [3H]Gly as radioligand).
Assay type: cell membranes

Row | SMILES | pKi
1 | O=c1[nH]c2cc(-n3ccnc3)c([N+](=O)[O-])cc2[nH]c1=O [YM-90K] | 4.43
2 | O=c1[nH]c2cc([N+](=O)[O-])c(-n3ccnc3)cc2n(O)c1=O | 5.38

Each compound was assayed against Glutamate NMDA receptor (assay: Binding affinity towards NMDA receptor was determined in rat whole brain membrane using NMDA-sensitive [3H]Glu as radioligand).
Assay type: cell membranes

Row | SMILES | pKi
3 | O=c1[nH]c2cc([N+](=O)[O-])c(-n3ccnc3)cc2n(O)c1=O | 4.92

These compounds were tested against Glutamate receptor ionotropic, AMPA (Rattus norvegicus, UniProt P19490+P19491+P19492+P19493).
Description: Binding affinity towards Ionotropic glutamate receptor AMPA was determined in rat whole brain membrane using [3H]AMPA as radioligand

Row | pKi | SMILES
4 | 6.52 | CCOn1c(=O)c(=O)[nH]c2cc([N+](=O)[O-])c(-n3ccnc3)cc21
5 | 6.08 | CN(C)CCn1c(=O)c(=O)[nH]c2cc([N+](=O)[O-])c(-n3ccnc3)cc21
6 | 7.30 | Cc1cn(-c2cc3c(cc2[N+](=O)[O-])[nH]c(=O)c(=O)n3O)cn1
7 | 6.48 | Cn1c(=O)c(=O)[nH]c2cc([N+](=O)[O-])c(-n3ccnc3)cc21
8 | 5.35 | CCCn1c(=O)c(=O)[nH]c2cc(-n3ccnc3)c([N+](=O)[O-])cc21
9 | 5.05 | CCCCCCCCCCn1c(=O)c(=O)[nH]c2cc([N+](=O)[O-])c(-n3ccnc3)cc21
10 | 6.64 | CC(C)CCn1c(=O)c(=O)[nH]c2cc([N+](=O)[O-])c(-n3ccnc3)cc21
11 | 6.85 | CCCn1c(=O)c(=O)[nH]c2cc([N+](=O)[O-])c(-n3ccnc3)cc21
12 | 6.36 | O=c1[nH]c2cc(-n3ccnc3)c([N+](=O)[O-])cc2n(O)c1=O
13 | 6.42 | COn1c(=O)c(=O)[nH]c2cc([N+](=O)[O-])c(-n3ccnc3)cc21
14 | 6.38 | O=c1[nH]c2cc([N+](=O)[O-])c(-n3ccnc3)cc2n(CCO)c1=O
15 | 6.72 | CCn1c(=O)c(=O)[nH]c2cc([N+](=O)[O-])c(-n3ccnc3)cc21

Row | SMILES | pKi
16 | O=c1[nH]c2cc([N+](=O)[O-])c(-n3ccnc3)cc2n(O)c1=O | 7.68
17 | O=c1[nH]c2cc([N+](=O)[O-])c(-n3ccnc3)cc2n(C2CCNC2)c1=O (configuration not stated) | 6.26
18 | O=c1[nH]c2cc([N+](=O)[O-])c(-n3ccnc3)cc2n(CC2CCCCC2)c1=O | 6.10
19 | O=c1[nH]c2cc([N+](=O)[O-])c(-n3ccnc3)cc2n(C2CN3CCC2CC3)c1=O (configuration not stated) | 6.00
20 | O=c1[nH]c2cc([N+](=O)[O-])c(-n3cncn3)cc2n(O)c1=O | 6.74
21 | O=c1[nH]c2cc([N+](=O)[O-])c(-n3ccnc3)cc2n(C2CCCCC2)c1=O | 6.96

Each compound was assayed against Glutamate receptor ionotropic, kainate (assay: Binding affinity towards Ionotropic glutamate receptor kainate was determined in rat cortical membrane using [3H]KA as radioligand).
Assay type: cell membranes

Row | SMILES | pKi
22 | O=c1[nH]c2cc([N+](=O)[O-])c(-n3ccnc3)cc2n(O)c1=O | 6.20
